According to PubChem BioAssay (NCI):
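Exposure lasted 48 hours, with cells grown in 96-well plates and compounds tested at five concentrations. TGI marks complete inhibition of growth.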

Legend:
Assay in all cases: growth of human tumour cells (NCI), 48 h
HOP-62 NSCLC = tested on: HOP-62 NSCLC
UACC-257 melanoma = tested on: UACC-257 melanoma
IGROV1 ovarian = tested on: IGROV1 ovarian
SK-OV-3 ovarian = tested on: SK-OV-3 ovarian
SR leukemia = tested on: SR leukemia
EKVX NSCLC = tested on: EKVX NSCLC
SK-MEL-2 melanoma = tested on: SK-MEL-2 melanoma
U251 CNS = tested on: U251 CNS
RXF 393 renal = tested on: RXF 393 renal
MDA-MB-231 breast = tested on: MDA-MB-231 breast
786-0 renal = tested on: 786-0 renal
SNB-19 CNS = tested on: SNB-19 CNS
HOP-92 NSCLC = tested on: HOP-92 NSCLC
HT29 colon = tested on: HT29 colon
CAKI-1 renal = tested on: CAKI-1 renal
NCI-H460 lung = tested on: NCI-H460 lung
TK-10 renal = tested on: TK-10 renal
BT-549 breast = tested on: BT-549 breast
UO-31 renal = tested on: UO-31 renal
MALME-3M melanoma = tested on: MALME-3M melanoma
LOX IMVI melanoma = tested on: LOX IMVI melanoma
CCRF-CEM leukemia = tested on: CCRF-CEM leukemia
OVCAR-3 ovarian = tested on: OVCAR-3 ovarian
SF-539 CNS = tested on: SF-539 CNS
HCT-15 colon = tested on: HCT-15 colon
NCI-H23 lung = tested on: NCI-H23 lung
OVCAR-5 ovarian = tested on: OVCAR-5 ovarian
HCC-2998 colon = tested on: HCC-2998 colon
KM12 colon = tested on: KM12 colon
OVCAR-4 ovarian = tested on: OVCAR-4 ovarian
NCI/ADR-RES ovarian = tested on: NCI/ADR-RES ovarian
PC-3 prostate = tested on: PC-3 prostate
NCI-H226 lung = tested on: NCI-H226 lung
SK-MEL-28 melanoma = tested on: SK-MEL-28 melanoma
MOLT-4 leukemia = tested on: MOLT-4 leukemia
K-562 leukemia = tested on: K-562 leukemia
HL-60(TB) leukemia = tested on: HL-60(TB) leukemia
SF-268 CNS = tested on: SF-268 CNS
MCF7 breast = tested on: MCF7 breast
A549 NSCLC = tested on: A549 NSCLC
SF-295 CNS = tested on: SF-295 CNS
RPMI-8226 leukemia = tested on: RPMI-8226 leukemia
MDA-N = tested on: MDA-N
MDA-MB-435 = tested on: MDA-MB-435
NCI-H522 lung = tested on: NCI-H522 lung
OVCAR-8 ovarian = tested on: OVCAR-8 ovarian
SNB-75 CNS = tested on: SNB-75 CNS
DU-145 prostate = tested on: DU-145 prostate
SK-MEL-5 melanoma = tested on: SK-MEL-5 melanoma
UACC-62 melanoma = tested on: UACC-62 melanoma
ACHN renal = tested on: ACHN renal
HCT-116 colon = tested on: HCT-116 colon
COLO 205 colon = tested on: COLO 205 colon
SN12C renal = tested on: SN12C renal
SW-620 colon = tested on: SW-620 colon
HS 578T breast = tested on: HS 578T breast
T-47D breast = tested on: T-47D breast
M14 melanoma = tested on: M14 melanoma

## COC(=O)[C@@H]1C[C@@H]2c3ccccc3N(S(=O)(=O)c3ccccc3)[C@@H]2N1C(=O)OC
HOP-62 NSCLC
  TGI: > 100 µM
UACC-257 melanoma
  TGI: > 100 µM
IGROV1 ovarian
  TGI: > 100 µM
SK-OV-3 ovarian
  TGI: > 100 µM
SR leukemia
  TGI: > 100 µM
EKVX NSCLC
  TGI: > 100 µM
SK-MEL-2 melanoma
  TGI: > 100 µM
U251 CNS
  TGI: > 100 µM
RXF 393 renal
  TGI: > 100 µM
MDA-MB-231 breast
  TGI: > 100 µM
786-0 renal
  TGI: > 100 µM
SNB-19 CNS
  TGI: > 100 µM
HOP-92 NSCLC
  TGI: > 100 µM
HT29 colon
  TGI: > 100 µM
CAKI-1 renal
  TGI: > 100 µM
NCI-H460 lung
  TGI: > 100 µM
TK-10 renal
  TGI: > 100 µM
BT-549 breast
  TGI: > 100 µM
UO-31 renal
  TGI: > 100 µM
MALME-3M melanoma
  TGI: > 100 µM
LOX IMVI melanoma
  TGI: > 100 µM
CCRF-CEM leukemia
  TGI: > 100 µM
OVCAR-3 ovarian
  TGI: > 100 µM
SF-539 CNS
  TGI: > 100 µM
HCT-15 colon
  TGI: > 100 µM
NCI-H23 lung
  TGI: > 100 µM
OVCAR-5 ovarian
  TGI: > 100 µM
HCC-2998 colon
  TGI: > 100 µM
KM12 colon
  TGI: > 100 µM
OVCAR-4 ovarian
  TGI: > 100 µM
NCI/ADR-RES ovarian
  TGI: > 100 µM
PC-3 prostate
  TGI: > 100 µM
NCI-H226 lung
  TGI: > 100 µM
SK-MEL-28 melanoma
  TGI: > 100 µM
MOLT-4 leukemia
  TGI: > 100 µM
K-562 leukemia
  TGI: > 100 µM
HL-60(TB) leukemia
  TGI: > 100 µM
SF-268 CNS
  TGI: > 100 µM
MCF7 breast
  TGI: > 100 µM
A549 NSCLC
  TGI: > 100 µM
SF-295 CNS
  TGI: > 100 µM
RPMI-8226 leukemia
  TGI: > 100 µM
MDA-N
  TGI: > 100 µM
MDA-MB-435
  TGI: > 100 µM
NCI-H522 lung
  TGI: > 100 µM
OVCAR-8 ovarian
  TGI: > 100 µM
SNB-75 CNS
  TGI: > 100 µM
DU-145 prostate
  TGI: > 100 µM
SK-MEL-5 melanoma
  TGI: > 100 µM
UACC-62 melanoma
  TGI: > 100 µM
ACHN renal
  TGI: > 100 µM
HCT-116 colon
  TGI: > 100 µM
COLO 205 colon
  TGI: > 100 µM
SN12C renal
  TGI: > 100 µM
SW-620 colon
  TGI: > 100 µM
HS 578T breast
  TGI: > 100 µM

## CCCCCCCN1C(=O)C(O)(c2ccc(C3(O)C(=O)N(CCCCCCC)c4ccccc43)s2)c2ccccc21 (centres undefined)
HOP-62 NSCLC
  TGI: 3.41 µM
T-47D breast
  TGI: 15 µM
UACC-257 melanoma
  TGI: 4.42 µM
IGROV1 ovarian
  TGI: 4.28 µM
SK-OV-3 ovarian
  TGI: 2.2 µM
SR leukemia
  TGI: 18.4 µM
SK-MEL-2 melanoma
  TGI: 2.93 µM
U251 CNS
  TGI: 3.17 µM
MDA-MB-231 breast
  TGI: 4.12 µM
786-0 renal
  TGI: 3.61 µM
SNB-19 CNS
  TGI: 8.7 µM
HOP-92 NSCLC
  TGI: 3.55 µM
HT29 colon
  TGI: 3.28 µM
NCI-H460 lung
  TGI: 3.49 µM
TK-10 renal
  TGI: 5.67 µM
BT-549 breast
  TGI: 4.12 µM
UO-31 renal
  TGI: 3.14 µM
LOX IMVI melanoma
  TGI: 3.51 µM
CCRF-CEM leukemia
  TGI: 27 µM
SF-539 CNS
  TGI: 3.34 µM
HCT-15 colon
  TGI: 4.42 µM
OVCAR-5 ovarian
  TGI: 3.24 µM
HCC-2998 colon
  TGI: 3.44 µM
KM12 colon
  TGI: 3.36 µM
OVCAR-4 ovarian
  TGI: 3.77 µM
PC-3 prostate
  TGI: 3.8 µM
SK-MEL-28 melanoma
  TGI: 3.98 µM
MOLT-4 leukemia
  TGI: 4.16 µM
K-562 leukemia
  TGI: 7.67 µM
HL-60(TB) leukemia
  TGI: 3.42 µM
SF-268 CNS
  TGI: 3.97 µM
MCF7 breast
  TGI: 5.7 µM
SF-295 CNS
  TGI: 3.42 µM
RPMI-8226 leukemia
  TGI: 4.69 µM
MDA-N
  TGI: 4.06 µM
MDA-MB-435
  TGI: 3.87 µM
OVCAR-8 ovarian
  TGI: 4.41 µM
SNB-75 CNS
  TGI: 17.3 µM
DU-145 prostate
  TGI: 3.29 µM
SK-MEL-5 melanoma
  TGI: 3.26 µM
UACC-62 melanoma
  TGI: 4.06 µM
ACHN renal
  TGI: 4.92 µM
HCT-116 colon
  TGI: 3.18 µM
M14 melanoma
  TGI: 3.69 µM
COLO 205 colon
  TGI: 3.21 µM
SN12C renal
  TGI: 3.42 µM
SW-620 colon
  TGI: 4.55 µM
HS 578T breast
  TGI: 5.31 µM
